Values after ≈ are worked out from the molar mass of the structure shown. Values joined by “and” are separate entries in the source; they are usually repeats but may differ in a detail not shown here. Equal entries are not always repeated.
Tests used:
[1] = system: Gram-negative bacterial strains; experiment: Antibacterial activity against Gram-negative bacteria; assay type: cell-based; conditions: four Gram-negative bacterial strains examined
[2] = target: T1, MraYSA (S. aureus MraY enzyme) (Staphylococcus aureus, UniProt Q2FZ93); experiment: Fluorescence-based MraY inhibitory assay (dansylated Park's nucleotide); conditions: for MraYSA activity, source data of Fig. 7b, average: average of n=1-3
T1 sequence (Q2FZ93 1-321): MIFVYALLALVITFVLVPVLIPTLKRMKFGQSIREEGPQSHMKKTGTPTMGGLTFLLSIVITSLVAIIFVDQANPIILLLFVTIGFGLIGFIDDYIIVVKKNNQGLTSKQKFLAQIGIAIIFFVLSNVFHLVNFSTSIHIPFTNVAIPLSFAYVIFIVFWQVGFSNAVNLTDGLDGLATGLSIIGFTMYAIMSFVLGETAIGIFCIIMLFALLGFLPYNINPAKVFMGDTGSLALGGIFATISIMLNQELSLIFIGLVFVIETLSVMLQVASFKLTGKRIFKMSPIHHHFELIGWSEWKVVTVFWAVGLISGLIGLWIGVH

S. aureus = experiment: Antibacterial activity, MIC by microdilution broth method (CLSI); assay type: cell-based, Staphylococcus aureus; conditions: Staphylococcus aureus, ATCC29213, 20 h, S. aureus ATCC 29213; CA-MHB, 37 °C, 20 h
E. faecium = experiment: as above; assay type: cell-based, Enterococcus faecium; conditions: Enterococcus faecium, ATCC35667, 20 h, E. faecium ATCC 35667; CA-MHB, 37 °C, 20 h; read-out: MIC
M. tuberculosis = experiment: MIC in 7H9 liquid medium, 2 weeks; assay type: cell-based; conditions: Mycobacterium tuberculosis, 336 h, M. tuberculosis H37Rv, 37 °C, minimum concentration inhibiting at least 50% of growth
Gram-positive bacteria = experiment: Antibacterial activity against Gram-positive bacteria; assay type: cell-based; conditions: for antibacterial activity against Gram-positive bacteria: such as S. aureus and E. faecium
K. pneumoniae = experiment: Antibacterial activity, MIC by microdilution broth method (CLSI); assay type: cell-based; conditions: Klebsiella pneumoniae, ATCC13883; K. pneumoniae ATCC 13883; CA-MHB, 37 °C, 20 h
A. baumannii = experiment: as above; assay type: cell-based; conditions: Acinetobacter baumannii, ATCC19606; A. baumannii ATCC 19606; CA-MHB, 37 °C, 20 h
M. avium = experiment: MIC in 7H9 liquid medium, 2 weeks; assay type: cell-based; conditions: Mycobacterium avium, ATCC25291, 336 h, M. avium ATCC 25291, 37 °C, minimum concentration inhibiting at least 50% of growth
MraYAA = MraYAA (Aquifex aeolicus, UniProt O66465); experiment: UMP-Glo assay; conditions: for Normalized (UMP / Lipid I formed minus no-enzyme average), source data of Fig. 7a: replicates 1-3
MraYAA, sequence (O66465 whole entry): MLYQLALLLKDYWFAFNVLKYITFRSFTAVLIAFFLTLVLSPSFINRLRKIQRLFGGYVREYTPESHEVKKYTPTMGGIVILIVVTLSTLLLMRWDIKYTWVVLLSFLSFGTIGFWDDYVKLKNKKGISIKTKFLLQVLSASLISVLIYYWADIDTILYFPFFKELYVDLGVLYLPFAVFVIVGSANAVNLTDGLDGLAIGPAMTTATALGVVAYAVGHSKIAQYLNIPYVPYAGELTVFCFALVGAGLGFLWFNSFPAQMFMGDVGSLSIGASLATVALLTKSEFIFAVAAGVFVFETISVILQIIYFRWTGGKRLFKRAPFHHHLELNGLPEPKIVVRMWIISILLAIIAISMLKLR

E. cloacae = experiment: Antibacterial activity, MIC by microdilution broth method (CLSI); assay type: cell-based; conditions: Enterobacter cloacae, ATCC13047; E. cloacae ATCC 13047; CA-MHB, 37 °C, 20 h
P. aeruginosa = experiment: as above; assay type: cell-based; conditions: Pseudomonas aeruginosa, ATCC27853; P. aeruginosa ATCC 27853; CA-MHB, 37 °C, 20 h
E. coli = experiment: as above; conditions: E. coli ATCC 25922; CA-MHB, 37 °C, 20 h

CCCCCCCCCCCCCCCC(=O)O[C@@H]1[C@@H]2CN(C[C@@H]1O)[C@H](C(=O)O)[C@@H]([C@H]1O[C@@H](n3ccc(=O)[nH]c3=O)[C@H](O)[C@@H]1O)O[C@@H]1O[C@H](CN2)[C@@H](O)[C@H]1O [SPM-1]
antibacterial activity against Gram-negative bacterial strains [1]: inactive | IC50 [2]: 9.1 nM | MraYSA activity, source data of Fig. 7b, average ([2]; compound 0.0001 µM): 94.43 | MraYSA activity, source data of Fig. 7b, average ([2]; compound 0.001 µM): 84.3881 | MraYSA activity, source data of Fig. 7b, average ([2]; compound 0.01 µM): 49.3175 | MraYSA activity, source data of Fig. 7b, average ([2]; compound 0.1 µM): 11.924 | MraYSA activity, source data of Fig. 7b, average ([2]; compound 1 µM): 3.067 | MraYSA activity, source data of Fig. 7b, average ([2]; compound 10 µM): 2.786 | MraYSA activity, source data of Fig. 7b, average ([2]; compound 100 µM): 7.015 | MIC (S. aureus): 2 µg/mL (≈ 2.55 µM) | MIC (E. faecium): 4 µg/mL (≈ 5.1 µM) | MIC (M. tuberculosis): 16 µg/mL (≈ 20.4 µM) | MIC (Gram-positive bacteria; range over S. aureus and E. faecium of Table 1, read-out: MIC against the Gram-positive pathogens): 2 to 4 µg/mL (≈ 2.55 to 5.1 µM) | antibacterial activity against Gram-positive bacteria (Gram-positive bacteria): active | MIC (K. pneumoniae): > 64 µg/mL | MIC (A. baumannii): > 64 µg/mL | MIC (M. avium): 2 µg/mL (≈ 2.55 µM) | IC50 (MraYAA): 0.17 µM | Normalized (UMP / Lipid I formed minus no-enzyme average), source data of Fig. 7a (MraYAA; inhibitor concentration 0.025): 27.4002 and 27.6068 and 25.0152 | Normalized (UMP / Lipid I formed minus no-enzyme average), source data of Fig. 7a (MraYAA; inhibitor concentration 0.05): 23.6062 and 21.9589 and 21.8339 | Normalized (UMP / Lipid I formed minus no-enzyme average), source data of Fig. 7a (MraYAA; inhibitor concentration 0.1): 22.1835 and 21.2199 and 20.7564 | Normalized (UMP / Lipid I formed minus no-enzyme average), source data of Fig. 7a (MraYAA; inhibitor concentration 0.2): 13.2781 and 11.6659 and 13.2137 | Normalized (UMP / Lipid I formed minus no-enzyme average), source data of Fig. 7a (MraYAA; inhibitor concentration 0.3): 8.4302 and 9.0267 and 7.4669 | Normalized (UMP / Lipid I formed minus no-enzyme average), source data of Fig. 7a (MraYAA; inhibitor concentration 0.4): 6.5859 and 6.3347 and 6.5433 | Normalized (UMP / Lipid I formed minus no-enzyme average), source data of Fig. 7a (MraYAA; inhibitor concentration 0.8): 3.6877 and 2.5343 and 3.6699 | Normalized (UMP / Lipid I formed minus no-enzyme average), source data of Fig. 7a (MraYAA; inhibitor concentration 1): 4.5308 and 4.5928 and 4.1831 | Normalized (UMP / Lipid I formed minus no-enzyme average), source data of Fig. 7a (MraYAA; inhibitor concentration 5): 0.1572 and 0.6868 and 0.8992 | Normalized (UMP / Lipid I formed minus no-enzyme average), source data of Fig. 7a (MraYAA; inhibitor concentration 50): 0.4734 and -0.0522 and 0.3348 | MIC (E. cloacae): > 64 µg/mL | MIC (P. aeruginosa): > 64 µg/mL | MIC (E. coli): >64 µg/mL

CCCCCCCCCCCCCCCC(=O)O[C@@H]1[C@H](O)CN2C[C@H]1NC[C@H]1O[C@@H](O[C@H]([C@H]3O[C@@H](n4ccc(=O)[nH]c4=O)[C@H](O)[C@@H]3O)[C@H]2C(=O)O)[C@H](O)[C@@H]1O [SPM-2]
antibacterial activity against Gram-negative bacterial strains [1]: inactive | IC50 [2]: 330 nM | MraYSA activity, source data of Fig. 7b, average ([2]; compound 0.0001 µM): 104.091 | MraYSA activity, source data of Fig. 7b, average ([2]; compound 0.001 µM): 99.892 | MraYSA activity, source data of Fig. 7b, average ([2]; compound 0.01 µM): 103.991 | MraYSA activity, source data of Fig. 7b, average ([2]; compound 0.1 µM): 72.6566 | MraYSA activity, source data of Fig. 7b, average ([2]; compound 1 µM): 26.5839 | MraYSA activity, source data of Fig. 7b, average ([2]; compound 10 µM): 7.955 | MraYSA activity, source data of Fig. 7b, average ([2]; compound 100 µM): 4.902 | MIC (S. aureus): > 64 µg/mL | MIC (E. faecium): 16 µg/mL (≈ 20.4 µM) | MIC (M. tuberculosis): > 32 µg/mL | MIC increase relative to SPM-1 (Gram-positive bacteria; Gram-positive pathogens): 4 fold | antibacterial activity against Gram-positive bacteria (Gram-positive bacteria): active | MIC (K. pneumoniae): > 64 µg/mL | MIC (A. baumannii): > 64 µg/mL | MIC (M. avium): 16 µg/mL (≈ 20.4 µM) | IC50 (MraYAA): 9.2 µM | Normalized (UMP / Lipid I formed minus no-enzyme average), source data of Fig. 7a (MraYAA; inhibitor concentration 0.1): 34.6720 and 31.83 and 31.8908 | Normalized (UMP / Lipid I formed minus no-enzyme average), source data of Fig. 7a (MraYAA; inhibitor concentration 0.4): 29.3499 and 29.56 and 31.6856 | Normalized (UMP / Lipid I formed minus no-enzyme average), source data of Fig. 7a (MraYAA; inhibitor concentration 1): 31.9846 and 31.04 and 28.7608 | Normalized (UMP / Lipid I formed minus no-enzyme average), source data of Fig. 7a (MraYAA; inhibitor concentration 2.5): 26.0302 and 21.75 and 21.7826 | Normalized (UMP / Lipid I formed minus no-enzyme average), source data of Fig. 7a (MraYAA; inhibitor concentration 5): 29.9822 and 25.5 and 23.2193 | Normalized (UMP / Lipid I formed minus no-enzyme average), source data of Fig. 7a (MraYAA; inhibitor concentration 12.5): 17.4410 and 14.04 and 12.8545 | Normalized (UMP / Lipid I formed minus no-enzyme average), source data of Fig. 7a (MraYAA; inhibitor concentration 25): 11.3284 and 8.499 and 7.57 | Normalized (UMP / Lipid I formed minus no-enzyme average), source data of Fig. 7a (MraYAA; inhibitor concentration 50): 4.6362 and 4.593 and 4.08 | Normalized (UMP / Lipid I formed minus no-enzyme average), source data of Fig. 7a (MraYAA; inhibitor concentration 70): 3.9512 and 2.534 and 2.592 | Normalized (UMP / Lipid I formed minus no-enzyme average), source data of Fig. 7a (MraYAA; inhibitor concentration 140): 2.0542 and 1.162 and 1.464 | MIC (E. cloacae): > 64 µg/mL | MIC (P. aeruginosa): > 64 µg/mL | MIC (E. coli): >64 µg/mL
